Assay results as given in US10857110B2, “Antibacterial compounds” (CONSEJO NACIONAL DE INVESTIGACIONES CIENTÍFICAS Y TÉCNICAS …, priority 2016, dated 2020).
In brackets after ≈: the same amount, converted by molar mass. Where two headings read alike, the source gives them in different places.

Columns and labels:
Experiment in all cases: MIC/MBC antibiotic sensitivity (CLSI)
[1] = tested on: Burkholderia cenocepacia (CBC 036); format: cell-based
Description: (§1) The new compounds of the invention were synthesized following the general method of preparation (Tetrahedron, 2001, 57, 1671-1675), from the reaction between an intermediary compound of the acyl thiourea and HgCl2 in presence of trimethylamine. The products were adequately characterized regarding its chemistry. The antibacterial activity of the new compounds was assayed against two Gram-positive reference strains: Staphylococcus aureus (ATCC6538) and Bacillus cereus (ATCC10876), a fermenting Gram-negative strain: Escherichia coli (ATCC25922), and 26 non-fermenting Gram-negative isolates, including 3 reference strains: Pseudomonas aeruginosa (PAO1), Bordetella bronchiseptica (9.73H+), and Inquilinus limosus (DSM16000), and 23 isolates recovered from patients suffering from cystic fibrosis, including one Achromobacter xylosoxidans isolate, and 22 isolates belonging to the Burkholderia cepacia complex. The later were selected because they presented resistance to a high number of antimicrobial compounds, among a panel of 125 clinical isolates previously analyzed for its resistance against 17 antimicrobial compounds (1,2). The antibiotic sensitivity studies were performed by applying two quantitative methods which allow to determine the minimum inhibitory concentration (MIC) and the minimum bactericidal concentration (MBC).
(§2) The compounds obtained in Examples 1 and 2 were assayed against 23 isolates recovered from the sputum of patients suffering from cystic fibrosis being treated at the Sor Maria Ludovica Children Hospital (La Plata, Buenos Aires, Argentina). Nineteen of these isolates were selected for being highly resistant to most of the antimicrobial agents of clinical use from a panel of 125 isolates previously characterized in Martina et al. (1). Reference strains were also included: Gram (+) bacteria: B. cereus and S. aureus, fermenting Gram (−) bacteria: E. coli, and non-fermenting Gram (−) bacteria: Inquilinus limosus (DSM16000), B. bronchiseptica, and Pseudomonas aeruginosa (PAO1). The antibiotic sensitivity studies were performed applying two quantitative methods which allow to determine the minimum inhibitory concentration (MIC) and the minimum bactericidal concentration (MBC) according to the criteria established by the Clinical and Laboratory Standards Institute (CLSI) (4). For comparative purposes, three antibiotics commonly used in the treatment of pulmonary infections in cystic fibrosis patients were included in the study: tobramycin, ceftazidime and meropenem.

[2] = tested on: Burkholderia cenocepacia (HE001); format: cell-based
Description: as §1, §2

[3] = tested on: Burkholderia multivorans (CBC 018); format: cell-based
Description: as §1, §2

[4] = tested on: Burkholderia multivorans (CBC 021); format: cell-based
Description: as §1, §2

[5] = tested on: Pseudomonas aeruginosa (PAO1); format: cell-based; conditions: Pseudomonas aeruginosa, P. aeruginosa (PAO1); for MBC: read-out: MBC; for MIC: read-out: MIC
Description: as §1, §2

[6] = tested on: Burkholderia seminalis (CBC 042); format: cell-based
Description: as §1, §2

[7] = tested on: Inquilinus limosus (DSM16000); format: cell-based
Description: as §1, §2

[8] = tested on: Burkholderia cenocepacia (CBC 032); format: cell-based
Description: as §1, §2

B. contaminans (HNBC001) = format: cell-based
Description: as §1, §2

[9] = tested on: Escherichia coli (ATCC25922); format: cell-based; conditions: for MBC / MIC: Escherichia coli, E. coli (ATCC25922); for MBC: read-out: MBC; for MIC: read-out: MIC
Description: as §1, §2

[10] = tested on: Burkholderia cepacia (CBC 011); format: cell-based
Description: as §1, §2

[11] = tested on: Burkholderia multivorans (CBC 022); format: cell-based
Description: as §1, §2

[12] = tested on: Burkholderia cenocepacia (CBC 023); format: cell-based
Description: as §1, §2

[13] = tested on: Burkholderia cepacia (CBC 010); format: cell-based
Description: as §1, §2

[14] = tested on: Burkholderia multivorans (CBC 016); format: cell-based
Description: as §1, §2

[15] = tested on: Burkholderia multivorans (CBC 019); format: cell-based
Description: as §1, §2

[16] = tested on: Burkholderia cenocepacia (CBC 029); format: cell-based
Description: as §1, §2

[17] = tested on: Burkholderia cenocepacia (CBC 033); format: cell-based
Description: as §1, §2

[18] = tested on: Burkholderia multivorans (CBC 020); format: cell-based
Description: as §1, §2

[19] = tested on: Bacillus cereus (ATCC10876); format: cell-based; conditions: for MBC: read-out: MBC; for MIC: read-out: MIC
Description: as §1, §2

[20] = tested on: Burkholderia cenocepacia (CBC 024); format: cell-based
Description: as §1, §2

[21] = tested on: Burkholderia cenocepacia (CBC 031); format: cell-based
Description: as §1, §2

[22] = tested on: Staphylococcus aureus (ATCC6538); format: cell-based; conditions: for MBC / MIC: Staphylococcus aureus, S. aureus (ATCC6538); for MBC: read-out: MBC; for MIC: read-out: MIC
Description: as §1, §2

[23] = tested on: Achromobacter xylosaxidans (HNA001); format: cell-based, Achromobacter xylosoxidans
Description: as §1, §2

[24] = Tobramucin, CLSI criteria, read-out: MIC (R/I/S category)

## NC[C@H]1O[C@H](O[C@H]2[C@H](O)[C@@H](O[C@H]3O[C@H](CO)[C@@H](O)[C@H](N)[C@H]3O)[C@H](N)C[C@@H]2N)[C@H](N)C[C@@H]1O [Tobramucin, tobramycin]
[1]; Burkholderia cenocepacia, Tobramucin, CLSI criteria, B. cenocepacia (CBC 036), read-out: MIC (R/I/S category)
  MIC: > 16 µg/mL
[2]; Burkholderia cenocepacia, Tobramucin, CLSI criteria, B. cenocepacia (HE001), read-out: MIC (R/I/S category)
  MIC: > 16 µg/mL
[3]; Burkholderia multivorans, Tobramucin, CLSI criteria, B. multivorans (CBC 018), read-out: MIC (R/I/S category)
  MIC: > 16 µg/mL
[4]; Burkholderia multivorans, Tobramucin, CLSI criteria, B. multivorans (CBC 021), read-out: MIC (R/I/S category)
  MIC: > 16 µg/mL
[5]
  MBC: 1.95 µg/mL (≈ 4.17 µM)
  MIC: 1.95 µg/mL (≈ 4.17 µM)
[6]; Burkholderia seminalis, Tobramucin, CLSI criteria, B. seminalis (CBC 042), read-out: MIC (R/I/S category)
  MIC: > 16 µg/mL
[7]; [24]
  MIC: > 16 µg/mL
[8]; Burkholderia cenocepacia, Tobramucin, CLSI criteria, B. cenocepacia (CBC 032), read-out: MIC (R/I/S category)
  MIC: > 16 µg/mL
B. contaminans (HNBC001); [24]
  MIC: > 16 µg/mL
[9]
  MBC: 15.6 µg/mL (≈ 33.4 µM)
  MIC: 15.6 µg/mL (≈ 33.4 µM)
[10]; Burkholderia cepacia, Tobramucin, CLSI criteria, B. cepacia (CBC 011), read-out: MIC (R/I/S category)
  MIC: > 16 µg/mL
[11]; Burkholderia multivorans, Tobramucin, CLSI criteria, B. multivorans (CBC 022), read-out: MIC (R/I/S category)
  MIC: > 16 µg/mL
[12]; Burkholderia cenocepacia, Tobramucin, CLSI criteria, B. cenocepacia (CBC 023), read-out: MIC (R/I/S category)
  MIC: > 16 µg/mL
[13]; Burkholderia cepacia, Tobramucin, CLSI criteria, B. cepacia (CBC 010), read-out: MIC (R/I/S category)
  MIC: > 16 µg/mL
[14]; Burkholderia multivorans, Tobramucin, CLSI criteria, B. multivorans (CBC 016), read-out: MIC (R/I/S category)
  MIC: > 16 µg/mL
[15]; Burkholderia multivorans, Tobramucin, CLSI criteria, B. multivorans (CBC 019), read-out: MIC (R/I/S category)
  MIC: > 16 µg/mL
[16]; Burkholderia cenocepacia, Tobramucin, CLSI criteria, B. cenocepacia (CBC 029), read-out: MIC (R/I/S category)
  MIC: > 16 µg/mL
[17]; Burkholderia cenocepacia, Tobramucin, CLSI criteria, B. cenocepacia (CBC 033), read-out: MIC (R/I/S category)
  MIC: > 16 µg/mL
[18]; Burkholderia multivorans, Tobramucin, CLSI criteria, B. multivorans (CBC 020), read-out: MIC (R/I/S category)
  MIC: > 16 µg/mL
[19]
  MBC: 31.2 µg/mL (≈ 66.8 µM)
  MIC: 7.81 µg/mL (≈ 16.7 µM)
[20]; Burkholderia cenocepacia, Tobramucin, CLSI criteria, B. cenocepacia (CBC 024), read-out: MIC (R/I/S category)
  MIC: > 16 µg/mL
[21]; Burkholderia cenocepacia, Tobramucin, CLSI criteria, B. cenocepacia (CBC 031), read-out: MIC (R/I/S category)
  MIC: > 16 µg/mL
[22]
  MBC: 1.95 µg/mL (≈ 4.17 µM)
  MIC: 1.95 µg/mL (≈ 4.17 µM)
[23]; Achromobacter, Tobramucin, CLSI criteria, A. xylosaxidans (HNA001), read-out: MIC (R/I/S category)
  MIC: > 16 µg/mL

## O=C(NC(=Nc1c(Br)cc(F)cc1Br)Nc1c(F)cc(F)cc1Br)C12CC3CC(CC(C3)C1)C2 [H-DBF, N—(N-(2-bromo-4,6-difluorophenyl)-N′-(2,6-dibromo-4-fluorophenyl)carbamimidoyl) adamantane-1-carboxamide]
[1]; Burkholderia cenocepacia (CBC 036), read-out: MBC
  MBC: 132 µg/mL (≈ 199 µM)
[1]; Burkholderia cenocepacia (CBC 036), read-out: MIC
  MIC: 66.4 µg/mL (≈ 100 µM)
[2]; Burkholderia cenocepacia (HE001)
  MBC: > 61.2 µg/mL
[2]; Burkholderia cenocepacia (HE001), read-out: MIC
  MIC: 61.2 µg/mL (≈ 92.2 µM)
[3]; Burkholderia multivorans (CBC 018), read-out: MBC
  MBC: > 132 µg/mL
[3]; Burkholderia multivorans (CBC 018), read-out: MIC
  MIC: 66.4 µg/mL (≈ 100 µM)
[4]; Burkholderia multivorans (CBC 021)
  MBC: > 132 µg/mL
[4]; Burkholderia multivorans (CBC 021), read-out: MIC
  MIC: 66.4 µg/mL (≈ 100 µM)
[5]
  MBC: > 133 µg/mL
  MIC: 33.2 µg/mL (≈ 50 µM)
[6]; Burkholderia seminalis (CBC 042)
  MBC: 66.4 µg/mL (≈ 100 µM)
[6]; Burkholderia seminalis (CBC 042), read-out: MIC
  MIC: 33.2 µg/mL (≈ 50 µM)
[7]; read-out: MIC
  MIC: 61.2 µg/mL (≈ 92.2 µM)
[8]; Burkholderia cenocepacia (CBC 032), read-out: MBC
  MBC: 62.5 µg/mL (≈ 94.1 µM)
[8]; Burkholderia cenocepacia (CBC 032), read-out: MIC
  MIC: 31.2 µg/mL (≈ 47.1 µM)
B. contaminans (HNBC001)
  MBC: 31.2 µg/mL (≈ 47.1 µM)
B. contaminans (HNBC001); read-out: MIC
  MIC: 15.6 µg/mL (≈ 23.5 µM)
[9]
  MBC: 66.4 µg/mL (≈ 100 µM)
  MIC: 66.4 µg/mL (≈ 100 µM)
[9]; ratio IC50 (THP-I) / MIC for E. coli
  Selectivity Index (SI): 2
[10]; Burkholderia cepacia (CBC 011)
  MBC: > 132 µg/mL
[10]; Burkholderia cepacia (CBC 011), read-out: MIC
  MIC: 66.4 µg/mL (≈ 100 µM)
[11]; Burkholderia multivorans (CBC 022)
  MBC: > 133 µg/mL
[11]; Burkholderia multivorans (CBC 022), read-out: MIC
  MIC: 133 µg/mL (≈ 200 µM)
[12]; Burkholderia cenocepacia (CBC 023)
  MBC: 132 µg/mL (≈ 199 µM)
[12]; Burkholderia cenocepacia (CBC 023), read-out: MIC
  MIC: 66.4 µg/mL (≈ 100 µM)
[13]; Burkholderia cepacia (CBC 010)
  MBC: > 132 µg/mL
[13]; Burkholderia cepacia (CBC 010), read-out: MIC
  MIC: 133 µg/mL (≈ 200 µM)
[14]; Burkholderia multivorans (CBC 016), read-out: MBC
  MBC: > 132 µg/mL
[14]; Burkholderia multivorans (CBC 016), read-out: MIC
  MIC: 66.4 µg/mL (≈ 100 µM)
[15]; Burkholderia multivorans (CBC 019)
  MBC: 132 µg/mL (≈ 199 µM)
[15]; Burkholderia multivorans (CBC 019), read-out: MIC
  MIC: 66.4 µg/mL (≈ 100 µM)
[16]; Burkholderia cenocepacia (CBC 029), read-out: MBC
  MBC: > 133 µg/mL
[16]; Burkholderia cenocepacia (CBC 029), read-out: MIC
  MIC: > 133 µg/mL
[17]; Burkholderia cenocepacia (CBC 033), read-out: MBC
  MBC: > 133 µg/mL
[17]; Burkholderia cenocepacia (CBC 033), read-out: MIC
  MIC: 133 µg/mL (≈ 200 µM)
[18]; Burkholderia multivorans (CBC 020)
  MBC: 133 µg/mL (≈ 200 µM)
[18]; Burkholderia multivorans (CBC 020), read-out: MIC
  MIC: 66.4 µg/mL (≈ 100 µM)
[19]
  MBC: 66.4 µg/mL (≈ 100 µM)
  MIC: 66.4 µg/mL (≈ 100 µM)
[20]; Burkholderia cenocepacia (CBC 024), read-out: MBC
  MBC: 132 µg/mL (≈ 199 µM)
[20]; Burkholderia cenocepacia (CBC 024), read-out: MIC
  MIC: 66.4 µg/mL (≈ 100 µM)
[21]; Burkholderia cenocepacia (CBC 031), read-out: MBC
  MBC: 62.5 µg/mL (≈ 94.1 µM)
[21]; Burkholderia cenocepacia (CBC 031), read-out: MIC
  MIC: 31.2 µg/mL (≈ 47.1 µM)
[22]
  MBC: 66.4 µg/mL (≈ 100 µM)
  MIC: 7.81 µg/mL (≈ 11.8 µM)
[22]; ratio IC50 (THP-I) / MIC against S. aureus
  Selectivity Index (SI): 17
[23]; Achromobacter xylosaxidans (HNA001)
  MBC: 31.2 µg/mL (≈ 47.1 µM)
[23]; Achromobacter xylosaxidans (HNA001), read-out: MIC
  MIC: 7.8 µg/mL (≈ 11.7 µM)
